Assay results as given in a melting point compilation (Tetko et al.; mined from patent text by program, amines drawn as free bases though some values may be those of a salt).

Compound	melting point [°C]
Cc1nc2c3c(ccn2c1C)[C@@H](OCCS(C)=O)[C@H](O)[C@@H](c1ccccc1)N3 (some centres undefined)	105 to 106
COc1ccccc1N1CCN(CCCn2c(=O)[nH]cc(C)c2=O)CC1	168 to 170
CCCN(C)C(=O)Nc1c(C(=O)c2ccccc2)[nH]c2cc(Cl)ccc12	168 to 171
S=C(NC1CCCCC1)N1CCN(c2cnccn2)CC1	176 to 178
O=C(O)CCOc1cccc2c1CCc1sc(SC(c3ccccc3)c3ccccc3)nc1-2	156 to 158
NC(=O)c1cc2c3ccccc3n(Cc3ccccc3)c2s1	207
CCC1C(C)=NN=C(c2ccccc2F)c2cc(OC)c(OC)cc21 (centres undefined)	86 to 88
O=C(c1ccccc1)C(O)O	85 to 85.5
O=C(O)CCCC=Cc1nn(-c2ccc(F)cc2)c2c1CCC2	90 to 91
CC(=O)N1CCN(Cc2cnc(-c3cc4cccc(N(C)S(=O)(=O)c5cccs5)c4[nH]3)s2)CC1	177 to 178
Cc1ccc(S(=O)(=O)N2CC3C(C2)C3Nc2ncc3cc(-c4ccccc4Cl)c(=O)n(C4CC4)c3n2)cc1 (centres undefined)	265 to 274
Nc1ncnc2c1ccn2C1C=CC(CO)C1 (centres undefined)	165 to 168
O=C(c1ccc(F)cc1)C1CCN(CCN2C(=O)Nc3ccc(Cl)cc3C2c2ccccc2)CC1 (centres undefined)	196
CCC12CCC3C4CCC(OC(C)=O)=CC4=CCC3C1CCC2OC(C)=O (centres undefined)	148 to 156
Cc1nc(N2CCC(Cc3ccc(OC(F)F)cc3)C2=O)sc1C(=O)NCc1ccccc1 (centres undefined)	132 to 133
CN1C2CCC1C(CO)C(c1ccc(I)cc1)C2 (centres undefined)	90 to 92
CCC(COC)c1ccc(Cl)c2nc3n(c12)CCCN3c1ccc(Cl)cc1Cl (centres undefined)	130 to 131
O=C1c2ccccc2C(=O)c2sccc21	232 to 234
Nc1sc2c(c1C(=O)c1ccc3ccccc3c1)CCN(Cc1ccc(Cl)cc1)C2	105 to 108
CC(=O)N1C(=O)C=CC1=O	58

Compound	melting point [°C]
CCOC(=O)/C=C(/c1ccccc1)c1ccc([N+](=O)[O-])c(COS(C)(=O)=O)c1	87.8
COCOc1ccc(COc2cc3c(cc2-c2cc(C=CC(=O)O)ccc2OC)C(C)(C)CCC3(C)C)cc1	106 to 108
CCOc1cccc2oc(-c3ccccc3)cc(=O)c12	111 to 113
CCOC(=O)CCCCCCCn1c(C)nc(-c2ccccc2)c1-c1ccccc1	135 to 136
CC(=O)OCCC1CCn2c(c(C3=C(c4cn(C)c5ccccc45)C(=O)OC3=O)c3ccccc32)C1 (centres undefined)	159 to 161
CCCCC1OC(=O)COC1=O (centres undefined)	37 to 39
CC(C)(C)OC(=O)NC[C@H]1CN(c2ccc3c(c2)CC(C(C)(C)C)N3C=O)C(=O)O1 (some centres undefined)	153 to 161
COC1CCC2C3CCC4CC(=O)C(C)(C)CC4(C)C3CCC12C (centres undefined)	116 to 120
Cn1cc(-c2cccc(Cl)c2)c(=S)c(-c2cccc(Cl)c2)c1	210 to 212
CC(=O)NCC1CN(c2ccc(N3CCN(c4nc5cc([N+](=O)[O-])ccc5o4)CC3)c(F)c2)C(=O)O1 (centres undefined)	224 to 225
O=C(CCn1ccnc1)c1c[nH]c2ccccc12	194 to 197
CS(=O)c1cc2n(c1C(=O)c1ccc(Br)cc1)CCC2C(=O)O (centres undefined)	226 to 227
CN(C)CCCC1(O)c2ccccc2C=Cn2cc(C#N)cc21 (centres undefined)	123 to 126
Cc1ccc(S(=O)(=O)c2ccccc2S(=O)(=O)N=CN(C)C)cc1	178
CCN1CCCC(NC(=O)c2ccccc2Nc2ccnc3cc(Cl)ccc23)C1 (centres undefined)	187 to 188
Cn1cc(C2=C(c3c[nH]c4cc([N+](=O)[O-])ccc34)C(=O)NC2=O)c2ccccc21	> 260
COc1ccc(N2CCN(c3c(C)c(C)c4c(c3C)C(c3ccc5ccccc5c3)C(C)(C)O4)CC2)cc1 (centres undefined)	170 to 171
CCc1ccc2oc(Cc3cccc(OC)c3)c(CCNC(C)=O)c2c1	102
O=C(N1CCN(c2ncccn2)CC1)N1CC(Oc2cccc(C(F)(F)F)c2)C1	127 to 128
CN1CC(CO)C=C2c3cccc4c3c(cn4C)CC21 (centres undefined)	216 to 217

Compound	melting point [°C]
O=c1c2cc(F)c(Cl)nc2n(-c2ccc(F)cc2F)c(=O)n1OCc1ccccc1	215 to 216
Cc1sc2c(Br)c3ccccc3c(-c3cc(Br)c(O)c(Br)c3)c2c1C	172 to 174
[N-]=[N+]=NCc1n[nH]nc1-c1ccc(Cl)cc1C(=O)c1ccccc1	128 to 131
CC12CCC3C(CCC4=CC(=CF)CCC43CS)C1CCC2=O (centres undefined)	118 to 120
CNC(=O)ON=C1N=C(C)C(C)(CC(C)C)S1 (centres undefined)	99 to 101
Nc1ncnc2c1c(-c1cccnc1)nn2Cc1oc2ccccc2c(=O)c1-c1ccccc1	253 to 255
Cc1noc2cc3c(cc12)C1(CO3)C(=O)N(Cc2ccccc2C(F)(F)F)c2ccccc21 (centres undefined)	192 to 194
CNc1c(NCCSCc2ccc(CN(C)C)s2)c(=O)c1=O	185 to 187
COc1ccc2c(c1OC)CN(Cc1ccccc1)CCc1cc3c(cc1CC2)OCO3	75 to 78
O=C(Cc1ccc2[nH]cc(CCN3C(=O)c4ccccc4C3=O)c2c1)NC1CCCCC1	175 to 176
Fc1ccc(-c2cc(Cl)nc3c2CCCC3)cc1	111 to 112
CC(Cc1ccc(OCc2ccccc2)cc1)NCC(O)c1cccc(Cl)c1 (centres undefined)	95 to 99
O=C(Cc1cccc2ccccc12)Nc1cc([C@H]2C[C@@H](Oc3nc4ccccc4o3)C2)[nH]n1	142
CON=C1CN(c2cc3c(cc2F)c(=O)c(C(=O)O)cn3C2CC2)CC12CN(C(=O)OC(C)(C)C)C2	255 to 256
O=C(O)CS(=O)(=O)CC(F)(F)F	145
CC(C)(C)OC(=O)n1cc(C(=O)C2CSC(c3cccnc3)N2)c2cccc(OCc3ccccc3)c21 (centres undefined)	91 to 96
CN(C)c1sc2cc(OCc3ccccc3)ccc2c1C(=O)c1ccc(F)c(C(F)(F)F)c1	164 to 167
CC(C)c1cc(C(C)C)c(NC(=O)CN2CCN(CCSc3nc4ccccc4o3)CC2)c(C(C)C)c1	160 to 163

Second part, the molecule after the results:

melting point [°C]	Compound
158 to 159	CCc1nn(-c2ccc3cc(N=CN(C)C)c(=O)oc3c2)nc1C
45 to 47	Cc1cnccc1C#N
148 to 150	CCOCc1nc2c(N)nc3ccccc3c2n1NCCCNS(C)(=O)=O
204 to 206	CC(C)CC(NC(=O)c1cc(O)c2c(c1)C(=O)c1cccc(O)c1C2=O)C(=O)O (centres undefined)
290	CNc1nc(O)cc(O)n1
126	COc1ccc2cccc3c2c1CCC3CNC(C)=O (centres undefined)
108 to 118	COc1cc2c(cc1Nc1ncc(Cl)c(N[C@@H]3CCCC[C@H]3NS(C)(=O)=O)n1)CCN(CCNC(C)=O)CC2
172 to 174	Cc1nc2ccc(S(=O)(=O)n3c(COC(C)(C)C(=O)O)cc4cc(Cl)ccc43)cc2s1
140	N#CCc1ccc(F)cc1C(=O)O
177 to 178	CSc1nsc(NC(=O)C(C)(C)C)c1C#N
248 to 250	CC(C)c1ccc(-c2cn(-c3cccc(C(=O)O)c3)cn2)cc1
172	COc1cc(Nc2nccc(Nc3ccc(CCO)cc3)n2)cc(OC)c1OC
191 to 194	COc1cc(Nc2nccc(-c3sc(Nc4ccccc4)nc3C)n2)cc(OC)c1
150 to 151	CNS(=O)(=O)c1cc(-c2ccc(C(F)(F)F)n(C)c2=O)c(F)cc1Cl
208 to 210	COc1cc(OC)c2c(=O)[nH]c(-c3ccc(OC)c(N4CCN(C(C)C)CC4)n3)nc2c1
214 to 215	CCNC(=O)Cn1cccc(O)c1=O
131 to 135	COc1cc(C)c(C(O)c2c(Cl)c(Cl)nc(Cl)c2C(F)(F)F)c(OC)c1OC (centres undefined)
169 to 170	Cc1noc2cc(OCCCNCC3CCc4ccc(O)cc4O3)ccc12 (centres undefined)
73 to 74	CCc1cc(C(C)=O)c(O)cc1OCCCCCC(C)(C)C(N)=O
165 to 168	COc1cc(C)nc(NC(=O)NS(=O)(=O)c2cccnc2Cl)n1
84.5 to 87	COC(=O)c1ccc(C(C)C(C)NCC(O)c2ccc(O)c(CO)c2)cc1 (centres undefined)

melting point [°C]	Compound
165	O=C(c1cccc(NC(=O)c2ccn3c2CSC3c2cccnc2)c1)c1ccccn1 (centres undefined)
112 to 114	Clc1cccc(Nc2nccc(Cl)n2)c1
153 to 154	CC(=O)c1ccc(OCc2cccc(N)c2)cc1O
222 to 223	O=C(O)c1ccc(OCc2ccc(Cl)c(Cl)c2)cc1
171 to 188	CCN1CCc2ccc(OC)c(Nc3ncc(Cl)c(Nc4ccccc4S(=O)(=O)NC)n3)c2CC1
106 to 107	CCCn1nc(-c2ccc(OC)cc2)cc(C(=O)NC)c1=O
138 to 140	CNC(=O)c1cn(CCO)nc1[N+](=O)[O-]
144 to 146	CCCCCCS(=O)(=O)c1nn2c(=O)cc(C#N)nc2s1
166 to 167	CC(=O)c1c(C)[nH]c(Cc2ccccc2)c1C
81 to 89	COc1cc(C2CCN(C(=O)C(C)(C)N)CC2)ccc1Nc1ncc2ccc(-c3ccccc3OC)n2n1
> 260	COc1cc(Cc2cnc(N)nc2N)cc2c1OC(C)(C)C=C2c1ccccc1
207 to 209	C[Si](C)(C)c1ccc(O)c(C(=O)C=C(O)c2ccc(C(=O)O)cc2)c1
176 to 178	CC(C)CN1C(=O)COc2cc(F)c(N)cc21
182 to 184	CCNC(=O)c1c(C2CC2)nc(CC)n1Cc1ccc2oc(-c3ccccc3C(=O)O)c(Br)c2c1
120 to 122	COc1ccc(-c2cc3cc(OC)cc(C(O)C(F)(F)F)c3o2)cc1 (centres undefined)
60 to 61	Cc1cc(C(F)(F)F)c2cccc(O)c2n1
125 to 128	COc1cc(C)ccc1-c1nc(C)c(-c2cccnc2)[nH]1
112 to 114	CC1=C(O)CCC(C)(C)C1=O
185	CC(=O)OC1CSC(Oc2ccnc(-c3ccncc3)c2)C(OC(C)=O)C1OC(C)=O (centres undefined)
128 to 129	CC(C)n1cnc2c(Nc3cccc(Cl)c3)nc(Cl)nc21
